# Laboratory results as given in patent US5281628A, “9-amino-7-(substituted)-6-demethyl-6-deoxytetracyclines” (American Cyanamid Company, priority 1991, dated 1994).
# Where a name gives a salt, the structure may show the parent alone. Read-outs that look alike come from different tables or passages of the source.
# Assays:
# [1] = system: E. coli S30 Ribosomes, tetM Variant (tetM protected ribosomes); experiment: In vitro protein translation with E. coli S30 ribosomes, tetM variant; format: biochemical; settings: for inhibition of protein synthesis on tetM protected ribosomes (in words): coupled transcription and translation system
# Method: The E. coli in vitro translation system can be used to study not only the mechanism of protein translation itself, but also the effect that various compounds may have on protein synthesis. The system can be set up to function as a coupled transcription and translation system or as a translation only system depending on whether DNA or RNA is added to initiate protein synthesis. In this way, compounds affecting either RNA synthesis and/or protein synthesis can be studied. Protein synthesis is monitored by the incorporation of radiolabeled amino acids into trichloroacetic acid precipitable material. The system used is based upon literature methods [G. Zubay, Ann. Rev. Genet., 7: 267-287(1973) and J. Collins, Gene, 6: 28-42 (1979)].
# The system used to study tetracycline protein synthesis inhibition is as follows:
# An S30 extract (supernatant from a 30,000×G centrifugation of lysed cells) of either tetracycline sensitive or tetracycline resistant (tetM+) cells is combined with a mixture of low molecular weight compounds required for protein synthesis which include a mixture of 19 amino acids, methionine, ^35 S-methionine, plasmid template DNA and either dimethylsulfoxide (DMSO) or the tetracycline to be tested dissolved and diluted in DMSO. This mixture is incubated at 37° C. for 30 minutes. Following the incubation, 2.5 μl of the 10 μl reaction is removed and added to 0.5 ml of 1N sodium hydroxide. The solution is incubated an additional 15 minutes at 37° C., to destroy any m-RNA and t-RNA. The incorporation of ^35 S-methionine is determined by precipitating the high molecular weight material in the sodium hydroxide aliquot with trichloroacetic acid (TCA), collecting the precipitated material on Whatman G/FC filters, drying the filters and counting the radioactivity retained on the filter. Percent inhibition (P.I.) of protein synthesis is determined by the following equation: [formula]
# [2] = system: tetracycline sensitive and resistant Gram-positive and Gram-negative bacteria; experiment: In vitro antibacterial evaluation, statements on the whole panel; format: cell-based
# Method: (§1) The minimum inhibitory concentration (MIC), the lowest concentration of the antibiotic which inhibits growth of the test organism, is determined by the microtiter broth dilution method using 0.1 ml Muller-Hinton II broth (Baltimore Biological Laboratories) per well. A suitable oxygen scavenger (i.e., cysteine or dithiothreitol) is added to the assay medium for the testing of compounds according to Formula I because of the sensitivity of those compounds to oxidation. An inoculum level of 1-5×10^5 CFU/ml and a range of antibiotic concentrations (32 0.004 μg/ml) are used.
# S. marcescens FPOR 87-33 = experiment: MIC, microtiter broth dilution; format: cell-based; settings: Serratia marcescens, FPOR8733, 18 h
# Method: as §1
# E. faecalis CI 2735 = experiment: MIC, microtiter broth dilution; format: cell-based; settings: Enterococcus faecalis, CI2735, 18 h
# Method: as §1
# [3] = system: S. aureus UBMS 88-4 (tetracycline-sensitive); experiment: MIC, microtiter broth dilution; format: cell-based; settings: Staphylococcus aureus, 18 h
# Method: as §1
# [4] = system: E. faecalis 12201 (vancomycin-resistant); experiment: MIC, microtiter broth dilution; format: cell-based; settings: Enterococcus faecalis, 18 h
# Method: as §1
# E. faecalis ATCC 29212 = experiment: MIC, microtiter broth dilution; format: cell-based; settings: Enterococcus faecalis, ATCC29212, 18 h
# Method: as §1
# [5] = system: S. aureus IVES 1983 (methicillin-resistant); experiment: MIC, microtiter broth dilution; format: cell-based; settings: Staphylococcus aureus, 18 h
# Method: as §1
# E. coli ATCC 25922 = experiment: MIC, microtiter broth dilution; format: cell-based; settings: Escherichia coli, ATCC25922, 18 h
# Method: as §1
# [6] = system: Coagulase negative staphylococci CI 664; experiment: MIC, microtiter broth dilution; format: cell-based; settings: 18 h
# Method: as §1
# P. aeruginosa ATCC 27853 = experiment: MIC, microtiter broth dilution; format: cell-based; settings: Pseudomonas aeruginosa, ATCC27853, 18 h
# Method: as §1
# [7] = system: Coagulase negative staphylococci CI 535; experiment: MIC, microtiter broth dilution; format: cell-based; settings: 18 h
# Method: as §1
# [8] = system: S. haemolyticus AVAH 88-3; experiment: MIC, microtiter broth dilution; format: cell-based; settings: Staphylococcus haemolyticus, AVAH883, 18 h
# Method: as §1
# [9] = system: S. aureus CI 3300 (methicillin-resistant); experiment: MIC, microtiter broth dilution; format: cell-based; settings: Staphylococcus aureus, 18 h
# Method: as §1
# S. aureus ATCC 29213 = experiment: MIC, microtiter broth dilution; format: cell-based; settings: Staphylococcus aureus, ATCC29213, 18 h
# Method: as §1
# [10] = system: S. aureus UBMS 90-3 (tetracycline-sensitive); experiment: MIC, microtiter broth dilution; format: cell-based; settings: Staphylococcus aureus, 18 h
# Method: as §1
# [11] = system: S. aureus IVES 2943 (methicillin-resistant); experiment: MIC, microtiter broth dilution; format: cell-based; settings: Staphylococcus aureus, 18 h
# Method: as §1
# [12] = system: S. aureus CI 2371 (methicillin-resistant); experiment: MIC, microtiter broth dilution; format: cell-based; settings: Staphylococcus aureus, 18 h
# Method: as §1
# [13] = system: E. coli UBMS 90-5 (tetracycline-sensitive); experiment: MIC, microtiter broth dilution; format: cell-based; settings: Escherichia coli, 18 h
# Method: as §1
# [14] = tetM S30 with DTT, 1:2 Dilution
# [15] = tetM S30 with DTT, 1:4 Dilution
# [16] = tetM S30 with DTT, 1:8 Dilution
# [17] = tetM S30 with DTT, 1:16 Dilution
# [18] = tetM S30 with DTT, 1:32 Dilution
# [19] = tetM S30 with DTT, 1:64 Dilution
# [20] = in the presence of cysteine (0.05%)
smiles,measurement,setting,value
"CN(C)c1cc(N)c(O)c2c1C[C@H]1C[C@H]3[C@H](N(C)C)C(O)=C(C(N)=O)C(=O)[C@@]3(O)C(O)=C1C2=O [A, 9-Amino-7-(dimethylamino)-6-demethyl-6-deoxytetracycline hydrochloride]",inhibition of protein synthesis on tetM protected ribosomes (in words),[1],effective in inhibiting protein synthesis
same,% Inhibition,"[1]; tetM S30 no DTT, 1.0 mg/ml",48%
same,Counts,"[1]; tetM S30 no DTT, 1.0 mg/ml",129780
same,% Inhibition,"[1]; tetM S30 no DTT, 1:2 Dilution",36%
same,Counts,"[1]; tetM S30 no DTT, 1:2 Dilution",158861
same,% Inhibition,"[1]; tetM S30 no DTT, 1:4 Dilution",18%
same,Counts,"[1]; tetM S30 no DTT, 1:4 Dilution",203184
same,% Inhibition,"[1]; tetM S30 no DTT, 1:8 Dilution",7%
same,Counts,"[1]; tetM S30 no DTT, 1:8 Dilution",231447
same,% Inhibition,"[1]; tetM S30 no DTT, 1:16 Dilution",0%
same,Counts,"[1]; tetM S30 no DTT, 1:16 Dilution",305633
same,% Inhibition,"[1]; tetM S30 no DTT, 1:32 Dilution",0%
same,Counts,"[1]; tetM S30 no DTT, 1:32 Dilution",349994
same,% Inhibition,"[1]; tetM S30 no DTT, 1:64 Dilution",0%
same,Counts,"[1]; tetM S30 no DTT, 1:64 Dilution",310723
same,% Inhibition,"[1]; tetM S30 with DTT, 1.0 mg/ml",68%
same,Counts,"[1]; tetM S30 with DTT, 1.0 mg/ml",145068
same,% Inhibition,[1]; [14],62%
same,Counts,[1]; [14],168574
same,% Inhibition,[1]; [15],49%
same,Counts,[1]; [15],226708
same,% Inhibition,[1]; [16],36%
same,Counts,[1]; [16],284606
same,% Inhibition,[1]; [17],16%
same,Counts,[1]; [17],375989
same,% Inhibition,[1]; [18],8%
same,Counts,[1]; [18],412967
same,% Inhibition,[1]; [19],0%
same,Counts,[1]; [19],507461
same,in vitro activity against tetracycline resistant strains carrying the tetM resistance determinant,"[2]; S. aureus UBMS 88-5, 90-1 and 90-2, E. coli UBMS 89-1 and 90-4",good in vitro activity
same,effectiveness vs. susceptible strains compared with B,"[2]; susceptible strains, comparator B",equally as effective
same,MIC,S. marcescens FPOR 87-33; [20],4 µg/mL
same,MIC,E. faecalis CI 2735; [20],0.5 µg/mL
same,MIC,[3]; [20],0.015 µg/mL
same,MIC,[4]; [20],0.5 µg/mL
same,MIC,E. faecalis ATCC 29212; [20],0.06 µg/mL
same,MIC,[5]; [20],0.5 µg/mL
same,MIC,E. coli ATCC 25922; [20],0.25 µg/mL
same,MIC,[6]; [20],0.003 µg/mL
same,MIC,P. aeruginosa ATCC 27853; [20],2 µg/mL
same,MIC,[7]; [20],1 µg/mL
same,MIC,"[8]; S. haemolyticus AVAH 88-3, in the presence of cysteine (0.05%), read-out: MIC",0.06 µg/mL
same,MIC,[9]; [20],0.25 µg/mL
same,MIC,S. aureus ATCC 29213; [20],0.008 µg/mL
same,MIC,[10]; [20],0.015 µg/mL
same,MIC,[11]; [20],0.5 µg/mL
same,MIC,[12]; [20],0.5 µg/mL
same,MIC,[13]; [20],0.25 µg/mL
"CN(C)c1ccc(O)c2c1C[C@H]1C[C@H]3[C@H](N(C)C)C(O)=C(C(N)=O)C(=O)[C@@]3(O)C(O)=C1C2=O [B, 7-(Dimethylamino)-6-demethyl-6-deoxytetracycline hydrochloride]",inhibition of protein synthesis on tetM protected ribosomes (in words),[1],unable to inhibit protein synthesis
same,% Inhibition,"[1]; tetM S30 no DTT, 1.0 mg/ml",0%
same,Counts,"[1]; tetM S30 no DTT, 1.0 mg/ml",281528
same,% Inhibition,"[1]; tetM S30 no DTT, 1:2 Dilution",0%
same,Counts,"[1]; tetM S30 no DTT, 1:2 Dilution",258633
same,% Inhibition,"[1]; tetM S30 no DTT, 1:4 Dilution",0%
same,Counts,"[1]; tetM S30 no DTT, 1:4 Dilution",248904
same,% Inhibition,"[1]; tetM S30 no DTT, 1:8 Dilution",0%
same,Counts,"[1]; tetM S30 no DTT, 1:8 Dilution",289595
same,% Inhibition,"[1]; tetM S30 no DTT, 1:16 Dilution",0%
same,Counts,"[1]; tetM S30 no DTT, 1:16 Dilution",287498
same,% Inhibition,"[1]; tetM S30 no DTT, 1:32 Dilution",0%
same,Counts,"[1]; tetM S30 no DTT, 1:32 Dilution",262329
same,% Inhibition,"[1]; tetM S30 no DTT, 1:64 Dilution",0%
same,Counts,"[1]; tetM S30 no DTT, 1:64 Dilution",249242
same,% Inhibition,"[1]; tetM S30 with DTT, 1.0 mg/ml",17%
same,Counts,"[1]; tetM S30 with DTT, 1.0 mg/ml",371475
same,% Inhibition,[1]; [14],26%
same,Counts,[1]; [14],331439
same,% Inhibition,[1]; [15],17%
same,Counts,[1]; [15],373168
same,% Inhibition,[1]; [16],6%
same,Counts,[1]; [16],421533
same,% Inhibition,[1]; [17],0%
same,Counts,[1]; [17],493679
same,% Inhibition,[1]; [18],0%
same,Counts,[1]; [18],490283
same,% Inhibition,[1]; [19],0%
same,Counts,[1]; [19],452837
same,Antibacterial potency in the presence of cysteine,[2]; in the presence of cysteine versus without,not enhanced
same,MIC,S. marcescens FPOR 87-33; no cysteine stated,2 µg/mL
same,MIC,E. faecalis CI 2735; no cysteine stated,4 µg/mL
same,MIC,[3]; no cysteine stated,0.008 µg/mL
same,MIC,[4]; no cysteine stated,4 µg/mL
same,MIC,E. faecalis ATCC 29212; no cysteine stated,0.25 µg/mL
same,MIC,[5]; no cysteine stated,1 µg/mL
same,MIC,E. coli ATCC 25922; no cysteine stated,0.25 µg/mL
same,MIC,[6]; no cysteine stated,0.015 µg/mL
same,MIC,P. aeruginosa ATCC 27853; no cysteine stated,4 µg/mL
same,MIC,[7]; no cysteine stated,8 µg/mL
same,MIC,[8],0.12 µg/mL
same,MIC,[9]; no cysteine stated,8 µg/mL
same,MIC,S. aureus ATCC 29213; no cysteine stated,≤ 0.004 µg/mL
same,MIC,[10]; no cysteine stated,0.015 µg/mL
same,MIC,[11]; no cysteine stated,1 µg/mL
same,MIC,[12]; no cysteine stated,4 µg/mL
same,MIC,[13]; no cysteine stated,0.5 µg/mL
